Test results taken from patent US20250100962A1 (CITY OF HOPE, priority 2023, published 2025).

Columns and labels:
[1] = system: U2OS cells containing Per2::dLuc luciferase reporter; experiment: Real-time bioluminescence monitoring of Per2::Luciferase reporter in U2OS cells (LumiCycle); format: cell-based; conditions: for LumiCycle Result: Clock activity (overall) / LumiCycle Result: Clock activity, Amplitude / LumiCycle Result: Clock activity, Period: U2OS Per2::dLuc; for LumiCycle Result: Clock activity (overall): CHX analogs screened; for LumiCycle Result: Clock activity, Amplitude / LumiCycle Result: Clock activity, Period: Table 1; for Modulatory Property: clock-modulatory classification
Procedure: U2OS cells or mouse fibroblasts (MF) containing a Per2-luciferase reporter (Yoo et al., 2004) were seeded at 4×10^5 concentration on 24 well plates and treated at 90% confluence with 1 ml 1×Fresh explant medium with desired compounds and controls. The seeding density was decided after trying several densities and choosing the one that after 24 h lead to 90% confluence. 1× Fresh explant medium was produced using 50% 2×DMEM buffer stock [DMEM powder (Gibco—Thermo Fisher CN: 12800-017), Sterile MilliQ water, pH7 1 M HEPES (Gibco—Thermo Fisher CN:15630080) and 7.5% Sodium Bicarbonate (Gibco—Thermo Fisher CN: 25080094)], 10% FBS (Cytiva), 37.9% Sterile MiliQ water, 1% PSG 100× (Gibco—Thermo Fisher CN: 10378016), 0.1% Sodium Hydroxixe (NaOH) 100 mM (Fishel Chemical CN: S318-500), 1% XenoLight D-Luciferin—Monopotassium Salt Bioluminiscent Substrate 100 mM (PerkinElmer CN: 122799). Treated cells were introduced to the LumiCycle96 (ActiMetrics) were they were cultured and Per2-luciferafe reporter luminescence was measured for 6 days. Raw and subtracted results for 5 days were exported and data was calculated as luminescence counts per second.

C2C12 myoblasts = experiment: Myogenic differentiation of C2C12 myoblasts; format: cell-based, mouse; conditions: Table 1 summary of CHX analogs
Procedure: Pictures were taken every day to monitor morphological progression, and proteins and RNA samples were collected on days indicated.
C2C12, C2C12 Bmal1 KD and C2C12 Scrambled control (SC) myoblasts were seeded at Day −1 at 2×105 concentration on 12 wells plates and maintained in 10% FBS until 80% confluency and treated with indicated compounds and controls in 2% FBS DMEM media to induce differentiation on Day 0. On days 3, 5 and 7 cells were fixed with 4% paraformaldehyde (from 37% Formaldehyde Baker Analyzed) and kept at 4° C. in PBS. Cells were permeabilized with Permeabilization solution of 0.5% Triton X-100 (Fisher Bioreagents CN: 9002-93-1) in PBS and blocked with Blocking solution of 1% BSA (Fisher Bioreagents CN:9048-46-8) in PBS. Primary antibodies were diluted in Washing solution of 0.01% Triton X-100 (Fisher Bioreagents CN: 9002-93-1) in PBS and left overnight at 4° C. Cells were then incubated with secondary antibodies in Washing solution at room temperature for 1 h. 1 μg/ml 4′,6′-diamidine-2′-phenylindole dihydrochloride (DAPI) was used to label for nuclei. […] To quantify the proliferation of myoblast, when needed, cells were treated with 1 μg/ml of EdU for 3 h before fixation. Detection of EdU was performed with Click-iT EdU Alexa Fluor 488 Imaging Kit before applying the immunofluorescence staining as described above.

CLOCK protein = CLOCK protein palmitoylation (acyl-biotin exchange) and stability; format: cell-based
Excerpt: FIGS. 11A-11C. Analysis of CLOCK protein S-palmitoylation. FIGS. 11A-11B: Identification of CLOCK palmitoylation by acyl-biotin exchange method using hydroxylamine (HAM). […] FIG. 11C: Structural modeling of the palmitoylation pocket and the docking pose within the hydrophobic pocket that lies between the interface of CLOCK interaction with Bmal1. FIGS. 12A-12C. Palmitoylation modulates CLOCK protein stability and interaction with Bmal1. […] FIG. 12B: CLOCK palmitoylation cysteine mutations inhibit its interaction with heterodimer partner Bmal1 and Bmal1 stability by single amino acid mutations. FIG. 12C: CLOCK palmitoylation site mutations attenuated CLOCK-mediated transcription activation.

mice = conditions: chow and high-fat diet; Xiong et al., 2023; cited from earlier work

Structure (SMILES): N=C(NCCCCCCNC(N)=O)NC(=N)Nc1ccc(Cl)cc1 [CM008]
- LumiCycle Result: Clock activity (overall) [1]: Cellular toxicity

Structure (SMILES): CCCCCCCNC(=N)NC(=N)Nc1ccc(Cl)cc1 [CM001]
- Myogenesis (C2C12 myoblasts): No effect
- LumiCycle Result: Clock activity, Amplitude [1]: Amplitude: No effect

Structure (SMILES): N=C(NCCCCCCCCCCCCCCNC(=N)NC(=N)Nc1ccc(Cl)cc1)NC(=N)Nc1ccc(Cl)cc1 [CM005]
- Myogenesis (C2C12 myoblasts): Slight inhition
- LumiCycle Result: Clock activity, Amplitude [1]: Amplitude: Increased at low
- LumiCycle Result: Clock activity, Period [1]: Period: Lengthening
- Modulatory Property [1]: Inhibitor

Structure (SMILES): CCCCCCCCCCC[C@@H](C[C@@H]1OC(=O)[C@H]1CCCCCC)OC(=O)[C@H](CC(C)C)NC=O [Orlistat]
- CLOCK protein stability (CLOCK protein): reduces CLOCK protein stability

Structure (SMILES): COc1ccc(-c2cc(=O)c3c(OC)c(OC)c(OC)c(OC)c3o2)cc1OC [Nobiletin]
- anti-obesity effect (mice): strong anti-obesity effect

Structure (SMILES): CCCCCCCNC(=N)Nc1nc2ccc(Cl)cc2[nH]1 [CM007]
- LumiCycle Result: Clock activity (overall) [1]: No effect

Structure (SMILES): CCCCCCCCCCCCCCC(Br)C(=O)O (centres unmarked) [2-BrP]
- CLOCK protein stability (CLOCK protein): reduces CLOCK protein stability
- CLOCK palmitoylation (CLOCK protein; Flag-tagged CLOCK in HEK 293T cells): loss of CLOCK palmitoylation

Structure (SMILES): N=C(NCCCCCCNC(=N)Nc1ccc(Cl)cc1)Nc1ccc(Cl)cc1 [CM004]
- Myogenesis (C2C12 myoblasts): Enhanced
- LumiCycle Result: Clock activity, Amplitude [1]: Amplitude: Increased
- LumiCycle Result: Clock activity, Period [1]: Period: Shortening
- Modulatory Property [1]: Activator

Structure (SMILES): N=C(NCCCCCCNC(=N)Nc1ccc(Cl)cc1)NC(=N)Nc1ccc(Cl)cc1 [CM003]
- LumiCycle Result: Clock activity (overall) [1]: No effect
